According to ChEMBL document CHEMBL1125350, “L-thymidine is phosphorylated by herpes simplex virus type 1 thymidine kinase and inhibits viral growth” (J Med Chem, 1992):

Tested on: Thymidine kinase (Human herpesvirus 1)
Settings: Human alphaherpesvirus 1

ID50: > 1000 µM
SMILES: Nc1ncnc2c1ncn2[C@H]1C[C@H](O)[C@@H](CO)O1
